Test results reported in BindingDB's records for doi:10.1021/cb300655w (Massachusetts Institute of Technology, 2013).

Columns and labels:
[1] = molecular target: T1, TGF-beta receptor type-1 (Mus musculus, UniProt Q64729)
T1 sequence (Q64729 whole entry): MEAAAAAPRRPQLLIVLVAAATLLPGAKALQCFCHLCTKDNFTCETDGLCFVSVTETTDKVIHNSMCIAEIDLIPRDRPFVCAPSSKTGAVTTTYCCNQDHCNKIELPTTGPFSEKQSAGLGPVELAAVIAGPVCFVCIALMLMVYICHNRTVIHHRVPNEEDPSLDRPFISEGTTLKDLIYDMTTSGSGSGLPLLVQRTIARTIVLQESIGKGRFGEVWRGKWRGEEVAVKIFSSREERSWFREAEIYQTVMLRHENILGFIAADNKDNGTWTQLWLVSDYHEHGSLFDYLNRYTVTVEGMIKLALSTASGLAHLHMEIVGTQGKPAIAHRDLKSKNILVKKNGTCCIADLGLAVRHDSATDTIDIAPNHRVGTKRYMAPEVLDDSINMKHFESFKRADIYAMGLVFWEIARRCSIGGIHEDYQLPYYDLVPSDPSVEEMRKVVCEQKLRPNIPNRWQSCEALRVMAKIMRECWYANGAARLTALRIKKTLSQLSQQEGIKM

[2] = molecular target: T2, Serine/threonine-protein kinase receptor R3 (Mus musculus, UniProt Q61288)
T2 sequence (Q61288 whole entry): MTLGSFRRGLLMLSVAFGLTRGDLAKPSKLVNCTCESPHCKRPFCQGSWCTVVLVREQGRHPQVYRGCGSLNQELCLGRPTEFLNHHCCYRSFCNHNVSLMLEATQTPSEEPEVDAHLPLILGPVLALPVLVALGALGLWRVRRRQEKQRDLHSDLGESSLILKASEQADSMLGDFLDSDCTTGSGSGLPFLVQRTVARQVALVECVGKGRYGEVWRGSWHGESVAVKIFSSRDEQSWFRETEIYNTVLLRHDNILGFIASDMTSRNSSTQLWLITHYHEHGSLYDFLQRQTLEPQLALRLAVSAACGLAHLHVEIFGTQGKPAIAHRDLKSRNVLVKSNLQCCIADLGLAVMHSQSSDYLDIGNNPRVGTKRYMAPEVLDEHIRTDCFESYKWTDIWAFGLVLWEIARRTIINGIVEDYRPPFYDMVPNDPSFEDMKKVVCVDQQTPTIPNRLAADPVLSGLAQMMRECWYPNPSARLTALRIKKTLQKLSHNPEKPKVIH

[3] = molecular target: T3, Activin receptor type-1B (Mus musculus, UniProt Q61271)
T3 sequence (Q61271 whole entry): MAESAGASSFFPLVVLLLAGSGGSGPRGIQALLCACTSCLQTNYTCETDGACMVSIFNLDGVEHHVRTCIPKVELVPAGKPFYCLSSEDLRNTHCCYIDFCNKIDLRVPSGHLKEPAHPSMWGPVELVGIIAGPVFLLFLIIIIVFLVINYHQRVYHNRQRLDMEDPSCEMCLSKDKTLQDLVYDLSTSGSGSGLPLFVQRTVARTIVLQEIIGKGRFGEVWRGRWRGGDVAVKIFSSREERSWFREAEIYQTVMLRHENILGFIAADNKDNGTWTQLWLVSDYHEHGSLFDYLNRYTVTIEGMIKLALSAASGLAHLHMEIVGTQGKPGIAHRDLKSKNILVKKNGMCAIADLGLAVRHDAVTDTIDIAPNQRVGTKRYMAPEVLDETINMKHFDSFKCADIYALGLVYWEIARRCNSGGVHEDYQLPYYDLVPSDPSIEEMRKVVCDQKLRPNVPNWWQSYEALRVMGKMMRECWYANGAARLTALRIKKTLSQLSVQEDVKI

[4] = molecular target: Bone morphogenetic protein receptor type-1A (Mus musculus, UniProt P36895)
Sequence of Bone morphogenetic protein receptor type-1A (P36895 whole entry): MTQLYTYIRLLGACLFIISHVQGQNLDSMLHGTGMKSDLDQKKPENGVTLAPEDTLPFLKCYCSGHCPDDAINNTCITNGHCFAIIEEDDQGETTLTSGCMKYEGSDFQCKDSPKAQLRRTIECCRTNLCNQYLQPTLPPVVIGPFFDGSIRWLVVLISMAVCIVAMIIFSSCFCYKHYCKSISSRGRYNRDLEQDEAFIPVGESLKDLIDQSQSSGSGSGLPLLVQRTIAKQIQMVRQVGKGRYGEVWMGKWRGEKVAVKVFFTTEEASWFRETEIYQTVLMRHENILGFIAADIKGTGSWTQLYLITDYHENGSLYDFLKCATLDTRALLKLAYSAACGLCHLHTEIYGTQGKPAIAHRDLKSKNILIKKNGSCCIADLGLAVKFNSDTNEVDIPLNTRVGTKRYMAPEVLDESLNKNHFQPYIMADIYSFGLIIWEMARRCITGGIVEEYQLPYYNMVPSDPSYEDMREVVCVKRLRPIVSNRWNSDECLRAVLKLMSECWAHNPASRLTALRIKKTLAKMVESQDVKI

[5] = molecular target: T4, Activin receptor type-1 (Mus musculus, UniProt P37172)
T4 sequence (P37172 whole entry): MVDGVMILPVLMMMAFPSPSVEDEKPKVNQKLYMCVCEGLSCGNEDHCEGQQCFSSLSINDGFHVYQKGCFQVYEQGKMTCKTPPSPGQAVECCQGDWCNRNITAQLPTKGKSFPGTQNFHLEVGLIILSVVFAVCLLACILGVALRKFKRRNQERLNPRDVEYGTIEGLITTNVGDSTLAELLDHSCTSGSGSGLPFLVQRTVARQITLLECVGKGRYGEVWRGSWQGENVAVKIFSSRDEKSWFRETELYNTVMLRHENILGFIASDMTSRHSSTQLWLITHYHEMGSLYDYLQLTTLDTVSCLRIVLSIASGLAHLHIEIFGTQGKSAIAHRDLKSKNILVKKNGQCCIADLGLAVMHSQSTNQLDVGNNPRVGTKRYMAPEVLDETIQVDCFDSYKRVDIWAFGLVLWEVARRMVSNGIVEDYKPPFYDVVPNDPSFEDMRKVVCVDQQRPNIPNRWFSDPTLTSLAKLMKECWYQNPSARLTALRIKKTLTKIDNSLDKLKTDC

| SMILES | IC50 [2] [nM] | IC50 [4] [nM] | IC50 [1] [µM] | IC50 [3] [µM] | IC50 [5] [nM] |
| --- | --- | --- | --- | --- | --- |
| c1cc(-c2cnn3cc(-c4ccc(OCCN5CCCCC5)cc4)cnc23)ccn1 | 19.5 | 222 | 7.83 | 3.08 |  |
| CC(C)Oc1ccc(-c2cnc3c(-c4ccnc5ccccc45)cnn3c2)cc1 [4-(6-(4-isopropoxyphenyl)pyrazolo[1,5-a]pyrimidin-3-yl)quinoline] | 77.9 | 241 | 5.97 | 11 | 12.6 |
| COc1cc(-c2cc(-c3cccc(O)c3)cnc2N)cc(OC)c1OC [K02288a] | 3.65 | 25.8 |  |  |  |

The next lines start with results.

| IC50 [2] [nM] | IC50 [4] [nM] | SMILES | IC50 [1] [µM] | IC50 [3] [µM] | IC50 [5] [nM] |
| --- | --- | --- | --- | --- | --- |
| 2.4 | 85.8 | c1cc(-c2cnn3cc(-c4ccc(N5CCNCC5)cc4)cnc23)c2cccnc2c1 [LDN-212854] | 9.28 | 2.13 |  |
| 1.48 | 14.3 | c1ccc2c(-c3cnn4cc(-c5ccc(N6CCNCC6)cc5)cnc34)ccnc2c1 [LDN-193189] | 0.117 |  |  |
